Test results published in patent US8071586B2, “Heterocyclyl compounds” (Hoffmann-La Roche Inc., priority 2008, dated 2011).

biological target: T1, human chemokine receptor 2 isoform B (CCR2) (Homo sapiens, UniProt P41597); experiment: Calcium mobilization assay (FLIPR, MCP-1 stimulated CHOK1-CCR2B-A5 cells); assay type: cell-based; settings: Ca mobilisation assay, CCR2 antagonist activity, inhibition of MCP-1 induced calcium increase
T1 sequence (P41597 1-360 isoform P41597-2): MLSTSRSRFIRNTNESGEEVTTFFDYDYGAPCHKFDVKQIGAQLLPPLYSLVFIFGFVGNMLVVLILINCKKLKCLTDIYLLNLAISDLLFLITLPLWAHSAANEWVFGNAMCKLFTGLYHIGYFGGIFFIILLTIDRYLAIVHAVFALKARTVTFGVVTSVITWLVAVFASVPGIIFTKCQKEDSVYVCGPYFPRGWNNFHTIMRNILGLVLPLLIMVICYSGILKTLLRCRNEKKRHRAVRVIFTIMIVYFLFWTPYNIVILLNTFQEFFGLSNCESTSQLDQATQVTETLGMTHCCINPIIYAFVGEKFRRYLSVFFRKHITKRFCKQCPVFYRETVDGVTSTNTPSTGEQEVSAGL
In short: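 Fluo-4-loaded CHOK1 cells stably expressing human CCR2B were preincubated with compound 20-30 min at 30 °C in DMEM/Hepes/probenecid/0.1% BSA buffer with 0.5% DMSO, then challenged with […] MCP-1. FLIPR calcium signal (max minus basal) gave IC50; agonism also monitored.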

Compared with `C[C@H]1C(=O)N(CCCCN2CCC3(CC3)[C@H](O)C2)CCN1C(=O)Nc1cccc(-c2ccccc2)c1` [Example 93, (S)-4-[4-((S)-4-Hydroxy-6-aza-spiro[2.5]oct-6-yl)-butyl]-2-methyl-3-oxo-piperazine-1-carboxylic acid biphenyl-3-ylamide], `C[C@H]1C(=O)N(CCCN2CCC3(CC3)[C@H](O)C2)CCN1C(=O)Nc1ccc2ccccc2c1` [Example 75, (S)-4-[3-((S)-4-Hydroxy-6-aza-spiro[2.5]oct-6-yl)-propyl]-2-methyl-3-oxo-piperazine-1-carboxylic acid naphthalen-2-ylamide] is 1.5-fold higher in IC50: 2 nM for the first, 3 nM for the second. The first is the more potent here.

Going from `O=C1CCN(C(=S)Nc2ccc(Cl)c(Cl)c2)CCN1CCCN1CCCCC1` [Example 18, 5-Oxo-4-(3-piperidin-1-yl-propyl)-[1,4]diazepane-1-carbothioic acid (3,4-dichloro-phenyl)-amide] to `O=C(Nc1ccc(Cl)c(Cl)c1)N1CCN(CCCN2CCCCC2)S(=O)(=O)CC1` [Example 21, 1,1-Dioxo-2-(3-piperidin-1-yl-propyl)-[1,2,5]thiadiazepane-5-carboxylic acid (3,4-dichloro-phenyl)-amide], the IC50 falls from 600 nM to 370 nM (1.6-fold).

Going from `COCC(CCN1CCC2(CC2)[C@H](O)C1)N1CC(C)N(C(=O)Nc2ccc(Cl)c(Cl)c2)CCC1=O` (stereo in doubt) [Example 68, (R)-4-[(S)-3-((S)-4-Hydroxy-6-aza-spiro[2.5]oct-6-yl)-1-methoxymethyl-propyl]-2-methyl-5-oxo-[1,4]diazepane-1-carboxylic acid (3,4-dichloro-phenyl)-amide] to `COC[C@H](CCN1CCC2(CC2)[C@H](O)C1)N1CCN(C(=O)Nc2ccc(Cl)c(Cl)c2)[C@@H](C)C1=O` [Example 80, (S)-4-[(S)-3-((S)-4-Hydroxy-6-aza-spiro[2.5]oct-6-yl)-1-methoxymethyl-propyl]-2-methyl-3-oxo-piperazine-1-carboxylic acid (3,4-dichloro-phenyl)-amide], the IC50 falls from 3 nM to 1 nM (3-fold). The second is the more potent here.

Going from `C[C@H]1C(=O)N([C@@H](CCN2CCCCC2)COC(=O)Nc2ccc(Cl)c(Cl)c2)CCN1C(=O)Nc1ccc(Cl)c(Cl)c1` [Example 86, (3,4-Dichloro-phenyl)-carbamic acid (S)-2-[(S)-4-(3,4-dichloro-phenylcarbamoyl)-3-methyl-2-oxo-piperazin-1-yl]-4-piperidin-1-yl-butyl ester] to `CC(=O)OC[C@H](CCN1CCC2(CC2)[C@H](O)C1)N1CCN(C(=O)Nc2ccc(Cl)c(Cl)c2)[C@@H](C)C1=O` [Example 108, Acetic acid (S)-2-[(S)-4-(3,4-dichloro-phenylcarbamoyl)-3-methyl-2-oxo-piperazin-1-yl]-4-((S)-4-hydroxy-6-aza-spiro[2.5]oct-6-yl)-butyl ester], the IC50 falls from 192 nM to 2 nM (96-fold). The second is the more potent here.

First: COC(=O)OC[C@H](CCN1CCC2(CC2)[C@H](O)C1)N1CCN(C(=O)Nc2cccc(Cl)c2)[C@@H](C)C1=O [Example 110, Carbonic acid (S)-2-[(S)-4-(3-chloro-phenylcarbamoyl)-3-methyl-2-oxo-piperazin-1-yl]-4-((S)-4-hydroxy-6-aza-spiro[2.5]oct-6-yl)-butyl ester methyl ester]
Second: CCNC(=O)OC[C@H](CCN1CCC2(CC2)[C@H](O)C1)N1CCN(C(=O)Nc2cccc(Cl)c2)[C@@H](C)C1=O [Example 111, Ethyl-carbamic acid (S)-2-[(S)-4-(3-chloro-phenylcarbamoyl)-3-methyl-2-oxo-piperazin-1-yl]-4-((S)-4-hydroxy-6-aza-spiro[2.5]oct-6-yl)-butyl ester]
The IC50 of the first is 3.4-fold lower: 5 nM for the first, 17 nM for the second.

Compared with `O=C1CCN(C(=O)Nc2ccc(Cl)c(Cl)c2)[C@H](c2ccccc2)CN1CCCN1CCCCC1` [Example 30, (R)-5-Oxo-2-phenyl-4-(3-piperidin-1-yl-propyl)-[1,4]diazepane-1-carboxylic acid (3,4-dichloro-phenyl)-amide], `O=C1CCN(C(=O)Nc2ccc(Cl)c(Cl)c2)CCN1CCCN1CCC2(CC2)[C@H](O)C1` [Example 54, 4-[3-((S)-4-Hydroxy-6-aza-spiro[2.5]oct-6-yl)-propyl]-5-oxo-[1,4]diazepane-1-carboxylic acid (3,4-dichloro-phenyl)-amide] is 160-fold lower in IC50: 960 nM for the first, 6 nM for the second. The second is the more potent here.

First: O=C(NCc1ccc(Cl)c(Cl)c1)OC[C@H](CCN1CCC2(CC2)[C@H](O)C1)N1CCN(C(=O)NCc2ccc(Cl)c(Cl)c2)CCC1=O [Example 52, (3,4-dichloro-benzyl)-carbamic acid (S)-2-[4-(3,4-dichloro-benzylcarbamoyl)-7-oxo-[1,4]diazepan-1-yl]-4-((S)-4-hydroxy-6-aza-spiro[2.5]oct-6-yl)-butyl ester]
Second: COc1ccc(C(=O)OC[C@H](CCN2CCC3(CC3)[C@H](O)C2)N2CCN(C(=O)Nc3ccc(Cl)c(Cl)c3)[C@@H](C)C2=O)cc1 [Example 119, 4-Methoxy-benzoic acid (S)-2-[(S)-4-(3,4-dichloro-phenylcarbamoyl)-3-methyl-2-oxo-piperazin-1-yl]-4-((S)-4-hydroxy-6-aza-spiro[2.5]oct-6-yl)-butyl ester]
The IC50 of the first is 240-fold higher: 960 nM for the first, 4 nM for the second. The second is the more potent here.

Compared with `C[C@H]1C(=O)N(CCCN2CCC(O)CC2)CCN1C(=O)Nc1ccc(Cl)c(Cl)c1` [Example 49, (S)-4-[3-(4-Hydroxy-piperidin-1-yl)-propyl]-2-methyl-3-oxo-piperazine-1-carboxylic acid (3,4-dichloro-phenyl)-amide], `C[C@H]1C(=O)N([C@H](CO)CCN2CCC3(CC3)[C@H](O)C2)CCN1C(=O)Nc1cccc(Cl)c1` [Example 107, (S)-4-[(S)-3-((S)-4-Hydroxy-6-aza-spiro[2.5]oct-6-yl)-1-hydroxymethyl-propyl]-2-methyl-3-oxo-piperazine-1-carboxylic acid (3-chloro-phenyl)-amide] is 80-fold lower in IC50: 160 nM for the first, 2 nM for the second. The second is the more potent here.

`COCC(CCN1CCC2(CC2)[C@H](O)C1)N1CC(C)N(C(=O)Nc2cccc(C(F)(F)F)c2)CCC1=O` (stereo in doubt) [Example 66, (R)-4-[(S)-3-((S)-4-Hydroxy-6-aza-spiro[2.5]oct-6-yl)-1-methoxymethyl-propyl]-2-methyl-5-oxo-[1,4]diazepane-1-carboxylic acid (3-trifluoromethyl-phenyl)-amide] gave an IC50 of 33 nM.
